# Experimental data reported in US20140357655A1, “SPIROINDOLINE DERIVATIVES AS GONADOTROPIN- RELEASING HORMONE RECEPTOR ANTAGONISTS” (Bayer Intellectual Property GmbH, priority 2012, published 2014).
# Target: T1, human GnRH receptor (Homo sapiens, UniProt P30968)
# T1 sequence (P30968 1-328): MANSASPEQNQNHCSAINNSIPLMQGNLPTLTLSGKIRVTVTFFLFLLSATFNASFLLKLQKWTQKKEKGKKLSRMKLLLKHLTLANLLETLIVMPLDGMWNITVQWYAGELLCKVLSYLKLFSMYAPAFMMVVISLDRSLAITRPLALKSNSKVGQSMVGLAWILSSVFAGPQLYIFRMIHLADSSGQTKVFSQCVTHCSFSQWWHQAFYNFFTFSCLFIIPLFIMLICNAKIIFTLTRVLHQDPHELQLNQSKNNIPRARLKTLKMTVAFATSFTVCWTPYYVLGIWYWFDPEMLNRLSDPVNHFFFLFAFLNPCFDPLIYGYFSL
# Assay: IP-One HTRF assay with buserelin (at EC80) stimulation
# Format: cell-based
# Conditions: CHO cells stably expressing human GnRH receptor, read-out: Potency in IP-One HTRF assay, given as IC50
# In short: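 Ten-point duplicate titrations (20 μM to 1 nM) were fitted by 4-parameter model to normalized 665/620 nm HTRF ratios, 0% = no compound, 100% = no agonist. Assay measured IP1 accumulation in human GnRH-R CHO cells stimulated 1 h at 37° C with EC80 buserelin, then lysed 1 h at 22° C.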
row,Compound,IC50 [nM]
1,"COC(=O)c1cccc(S(=O)(=O)N2c3ccc(C(=O)NCc4ccccc4Cl)cc3C3(CCS(=O)(=O)CC3)C2C2CC2)c1 (single isomer, unassigned) [Example 60.1, methyl 3-({5-[(2-chlorobenzyl)carbamoyl]-2-cyclopropyl-1′,1′-dioxido-2′,3′,5′,6′-tetrahydrospiro[indole-3,4′-thiopyran]-1(2H)-yl}sulfonyl)benzoate]",55
2,"NS(=O)(=O)c1cccc(NC(=O)c2ccc3c(c2)C2(CCS(=O)(=O)CC2)C(C2CC2)N3S(=O)(=O)c2ccc(F)cc2)c1 (single isomer, unassigned) [Example 30.2, 2-cyclopropyl-1-[(4-fluorophenyl)sulfonyl]-N-(3-sulfamoylphenyl)-1,2,2′,3′,5′,6′-hexahydrospiro[indole-3,4′-thiopyran]-5-carboxamide 1′,1′-dioxide]",190
3,"O=C(O)c1cccc(NC(=O)c2ccc3c(c2)C2(CCS(=O)(=O)CC2)C(C2CC2)N3S(=O)(=O)c2cccc(OC(F)F)c2)c1 (single isomer, unassigned) [Example 90.2, 3-{[(2-cyclopropyl-1-{[3-(difluoromethoxy)phenyl]sulfonyl}-1′,1′-dioxido-1,2,2′,3′,5′,6′-hexahydrospiro[indole-3,4′-thiopyran]-5-yl)carbonyl]amino}benzoic acid]",2860
4,"O=C(NC1CCOc2ccccc21)c1ccc2c(c1)C1(CCS(=O)(=O)CC1)C(C1CC1)N2S(=O)(=O)c1ccc(F)cc1 (single isomer, unassigned) [Example 33.1, 2-cyclopropyl-N-(3,4-dihydro-2H-chromen-4-yl)-1-[(4-fluorophenyl)sulfonyl]-1,2,2′,3′,5′,6′-hexahydrospiro[indole-3,4′-thiopyran]-5-carboxamide 1′,1′-dioxide]",425
5,"Cc1cncc(NC(=O)c2ccc3c(c2)C2(CCS(=O)(=O)CC2)C(C2CC2)N3S(=O)(=O)c2cccc(OC(F)(F)F)c2)c1 (centres unmarked) [Example 85, 2-cyclopropyl-N-(5-methylpyridin-3-yl)-1-{[3-(trifluoromethoxy)phenyl]sulfonyl}-1,2,2′,3′,5′,6′-hexahydrospiro[indole-3,4′-thiopyran]-5-carboxamide 1′,1′-dioxide]",804
6,"CC1N(S(=O)(=O)c2ccc(F)cc2)c2ccc(C(=O)NCc3ncc(F)cc3Cl)cc2C12CCOCC2 (centres unmarked) [Example 5, N-[(3-chloro-5-fluoropyridin-2-yl)methyl]-1-[(4-fluorophenyl)sulfonyl]-2-methyl-1,2,2′,3′,5′,6′-hexahydrospiro[indole-3,4′-pyran]-5-carboxamide]",345
7,"O=C(NCc1ccccc1C(F)(F)F)c1ccc2c(c1)C1(CCS(=O)(=O)CC1)C(C1CC1)N2S(=O)(=O)c1ccc(OC(F)F)cc1 (centres unmarked) [Example 92, 2-cyclopropyl-1-{[4-(difluoromethoxy)phenyl]sulfonyl}-N-[2-(trifluoromethyl)benzyl]-1,2,2′,3′,5′,6′-hexahydrospiro[indole-3,4′-thiopyran]-5-carboxamide 1′,1′-dioxide]",31
8,"COC(=O)c1cccc(NC(=O)c2ccc3c(c2)C2(CCS(=O)(=O)CC2)C(C2CC2)N3S(=O)(=O)c2cccc(OC)c2)c1 (centres unmarked) [Example 48, methyl 3-[({2-cyclopropyl-1-[(3-methoxyphenyl)sulfonyl]-1′,1′-dioxido-1,2,2′,3′,5′,6′-hexahydrospiro[indole-3,4′-thiopyran]-5-yl}carbonyl)amino]benzoate]",55
9,"CC1N(S(=O)(=O)c2ccc(F)cc2)c2ccc(C(=O)NCc3ccc(F)cc3)cc2C12CCOCC2 (centres unmarked) [Example 7, N-(4-fluorobenzyl)-1-[(4-fluorophenyl)sulfonyl]-2-methyl-1,2,2′,3′,5′,6′-hexahydrospiro[indole-3,4′-pyran]-5-carboxamide]",1060
10,"O=C(NCC1CC1)c1ccc2c(c1)C1(CCS(=O)(=O)CC1)C(C1CC1)N2S(=O)(=O)c1ccc(F)cc1 (single isomer, unassigned) [Example 35.2, 2-cyclopropyl-N-(cyclopropylmethyl)-1-[(4-fluorophenyl)sulfonyl]-1,2,2′,3′,5′,6′-hexahydrospiro[indole-3,4′-thiopyran]-5-carboxamide 1′,1′-dioxide]",> 20000
11,"O=C(NCc1ncc(F)cc1Cl)c1ccc2c(c1)C1(CCS(=O)(=O)CC1)C(C1CC1)N2S(=O)(=O)c1ccc(F)cc1 (single isomer, unassigned) [Example 17.1, N-[(3-chloro-5-fluoropyridin-2-yl)methyl]-2-cyclopropyl-1-[(4-fluorophenyl)sulfonyl]-1,2,2′,3′,5′,6′-hexahydrospiro[indole-3,4′-thiopyran]-5-carboxamide 1′,1′-dioxide]",139
12,"COC(=O)c1cccc(NC(=O)c2ccc3c(c2)C2(CCS(=O)(=O)CC2)C(C2CC2)N3S(=O)(=O)c2cccc(OC(F)(F)F)c2)c1 (centres unmarked) [Example 82, methyl 3-{[(2-cyclopropyl-1′,1′-dioxido-1-{[3-(trifluoromethoxy)phenyl]sulfonyl}-1,2,2′,3′,5′,6′-hexahydrospiro[indole-3,4′-thiopyran]-5-yl)carbonyl]amino}benzoate]",609
13,"CC1N(S(=O)(=O)c2ccc(F)cc2)c2ccc(C(=O)NCc3ncccc3Cl)cc2C12CCS(=O)(=O)CC2 (centres unmarked) [Example 26, N-[(3-chloropyridin-2-yl)methyl]-1-[(4-fluorophenyl)sulfonyl]-2-methyl-1,2,2′,3′,5′,6′-hexahydrospiro[indole-3,4′-thiopyran]-5-carboxamide 1′,1′-dioxide]",646
14,"CC1N(S(=O)(=O)c2ccc(F)cc2)c2ccc(C(=O)NCc3ncccc3C(F)(F)F)cc2C12CCOCC2 (single isomer, unassigned) [Example 3.2, 1-[(4-fluorophenyl)sulfonyl]-2-methyl-N-{[3-(trifluoromethyl)pyridin-2-yl]methyl}-1,2,2′,3′,5′,6′-hexahydrospiro[indole-3,4′-pyran]-5-carboxamide]",> 20000
15,"N#Cc1ccc(S(=O)(=O)N2c3ccc(C(=O)Nc4ncco4)cc3C3(CCS(=O)(=O)CC3)C2C2CC2)cc1 (centres unmarked) [Example 73, 1-[(4-cyanophenyl)sulfonyl]-2-cyclopropyl-N-(1,3-oxazol-2-yl)-1,2,2′,3′,5′,6′-hexahydrospiro[indole-3,4′-thiopyran]-5-carboxamide 1′,1′-dioxide]",130
16,"COc1cccc(S(=O)(=O)N2c3ccc(C(=O)Nc4cccc(S(N)(=O)=O)c4)cc3C3(CCS(=O)(=O)CC3)C2C2CC2)c1 (single isomer, unassigned) [Example 42.1, 2-cyclopropyl-1-[(3-methoxyphenyl)sulfonyl]-N-(3-sulfamoylphenyl)-1,2,2′,3′,5′,6′-hexahydrospiro[indole-3,4′-thiopyran]-5-carboxamide 1′,1′-dioxide]",437
17,"COc1cccc(S(=O)(=O)N2c3ccc(C(=O)NCc4ccccc4F)cc3C3(CCS(=O)(=O)CC3)C2C2CC2)c1 (centres unmarked) [Example 47, 2-cyclopropyl-N-(2-fluorobenzyl)-1-[(3-methoxyphenyl)sulfonyl]-1,2,2′,3′,5′,6′-hexahydrospiro[indole-3,4′-thiopyran]-5-carboxamide 1′,1′-dioxide]",133
18,"O=C(O)c1cccc(NC(=O)c2ccc3c(c2)C2(CCS(=O)(=O)CC2)C(C2CC2)N3S(=O)(=O)c2cccc(OC(F)F)c2)c1 (single isomer, unassigned) [Example 90.1, 3-{[(2-cyclopropyl-1-{[3-(difluoromethoxy)phenyl]sulfonyl}-1′,1′-dioxido-1,2,2′,3′,5′,6′-hexahydrospiro[indole-3,4′-thiopyran]-5-yl)carbonyl]amino}benzoic acid]",41
19,"O=C(NC1CCOc2ccccc21)c1ccc2c(c1)C1(CCS(=O)(=O)CC1)C(C1CC1)N2S(=O)(=O)c1ccc(F)cc1 (centres unmarked) [Example 33, 2-cyclopropyl-N-(3,4-dihydro-2H-chromen-4-yl)-1-[(4-fluorophenyl)sulfonyl]-1,2,2′,3′,5′,6′-hexahydrospiro[indole-3,4′-thiopyran]-5-carboxamide 1′,1′-dioxide]",958
20,"O=C(NCc1ccccn1)c1ccc2c(c1)C1(CCS(=O)(=O)CC1)C(C1CC1)N2S(=O)(=O)c1ccc(F)cc1 (centres unmarked) [Example 22, 2-cyclopropyl-1-[(4-fluorophenyl)sulfonyl]-N-(2-pyridylmethyl)-1,2,2′,3′,5′,6′-hexahydrospiro[indole-3,4′-thiopyran]-5-carboxamide 1′,1′-dioxide]",1480
21,"N#Cc1ccc(S(=O)(=O)N2c3ccc(C(=O)Nc4cncc(Cl)c4)cc3C3(CCS(=O)(=O)CC3)C2C2CC2)cc1 (single isomer, unassigned) [Example 71.1, N-(5-chloropyridin-3-yl)-1-[(4-cyanophenyl)sulfonyl]-2-cyclopropyl-1,2,2′,3′,5′,6′-hexahydrospiro[indole-3,4′-thiopyran]-5-carboxamide 1′,1′-dioxide]",49
22,"N#Cc1cccc(S(=O)(=O)N2c3ccc(C(=O)Nc4ncco4)cc3C3(CCS(=O)(=O)CC3)C2C2CC2)c1 (centres unmarked) [Example 78, 1-[(3-cyanophenyl)sulfonyl]-2-cyclopropyl-N-(1,3-oxazol-2-yl)-1,2,2′,3′,5′,6′-hexahydrospiro[indole-3,4′-thiopyran]-5-carboxamide 1′,1′-dioxide]",706
23,"N#Cc1cccc(S(=O)(=O)N2c3ccc(C(=O)NCc4ccccc4Cl)cc3C3(CCS(=O)(=O)CC3)C2C2CC2)c1 (centres unmarked) [Example 76, N-(2-chlorobenzyl)-1-[(3-cyanophenyl)sulfonyl]-2-cyclopropyl-1,2,2′,3′,5′,6′-hexahydrospiro[indole-3,4′-thiopyran]-5-carboxamide 1′,1′-dioxide]",44
